Marks after values point to notes of the source that are not given here.
Assays:
[1] = system: SD rats; test: Oral glucose tolerance test (OGTT) in rats; single injection; 1 mg/kg; type: in vivo; design: Change in AUC (mg/dL*min): unit not given here; details: for Blood Glucose AUC (mg/dL*min) Mean / Change in AUC (mg/dL*min): 1 mg/Kg; for Blood Glucose AUC (mg/dL*min) Mean: Exp. 1; for Change in AUC (mg/dL*min): Exp. 1, vs control group
Method: (§1) Animals were divided into three groups—a normal control group, a test group and a third semaglutide group, with 4 animals in each group. The animals were fasted for 12 hours before initiation of OGTT. To the test group animals, the Compound 1 was injected subcutaneously at 1 mg/kg dose. To the semaglutide group, a dose of 1 mg/kg was injected subcutaneously. After 22 hrs, 166 hrs and 334 hrs of subcutaneous injection of test drug or semaglutide, blood glucose was measured with blood glucose meter (time 0 measurements). All the animals were then given 2 g/kg of glucose solution orally. Blood glucose was measured at 20, 40, 60, 90 and 120 minutes following glucose challenge. Body weight and food intake was recorded. Blood glucose data was analyzed using Two way ANOVA followed by Bonferroni posttests using PRISM (Graph Pad version 5.03). Data of Blood glucose AUC0-120 min, was analyzed using t test.
as §1, with “animals,” for “animals, the”, “1, Compound 13 and Compound 16 were” for “1 was”, “compound” for “drug”

[2] = Food intake and body weight recorded in the rat OGTT study; type: in vivo, rats; details: for Body Weight Change (%) Mean / Food Consumption (g) Mean: Exp. 1
Method: as §1
as §1, with “animals,” for “animals, the”, “1, Compound 13 and Compound 16 were” for “1 was”, “compound” for “drug”

[3] = system: db/db type 2 diabetic mice; test: Reduction of HbA1c in db/db type 2 diabetic mice after chronic treatment (27 day study); type: in vivo
Method: This study was done in diabetic mouse model. The animals were divided into three treatment groups—a diabetic control group, a test group and a semaglutide treatment group. Compound 1 of the present disclosure was injected subcutaneously at 0.3 mg/kg dose once a day for 3 days (qd*3) followed by 0.1 mg/kg dose every alternate day for 7 doses (q2d*7) followed by 0.1 mg/kg dose once every four days for two dose cycles (q4d*2). The same dosage regimen was administered in semaglutide treatment group. Measurements of blood glucose levels and body weight were done daily. % HbA1c was measured on Day 0, day 7, day 14 and day 27 by column chromatography. Cumulative food intake was calculated on day 27. % HbA1C data was analyzed by two way ANOVA followed by Bonferroni's posttests using PRISM (Graph Pad version 5.03).

[4] = system: db/db mice (diabetic mouse model); test: Separate db/db diabetic mouse study, q2d*15 up to day 28, recovery period day 29 to day 45; type: in vivo
Method: The study was performed in similar manner as above on diabetic mouse model. The animals were divided into three treatment groups—a diabetic control group, a test group and a semaglutide treatment group. The representative compounds of the present disclosure, Compound 1, Compound 13 and Compound 16, were injected subcutaneously at 3.04 or 6.078 nM dose (every alternate day up to day 28 (q2d*15). The same dosage regimen was administered in semaglutide treatment group. Measurements of blood glucose levels and body weight were done daily. % HbA1c, Insulin was measured on Day 0, day 14 and day 29. Cumulative food intake and body weight change was calculated on day 14 and 29. % HbA1c, Insulin data was analyzed by two way ANOVA followed by Bonferroni's posttests using PRISM (Graph Pad version 5.03). Whereas Blood Glucose AUC, Body weight change and Cumulative food intake data was analyzed by one way ANOVA followed by Bonferroni's posttests using PRISM (Graph Pad version 5.03). From day 29 to day 45, animals were kept on recovery period during which no drug treatment was given. Blood Glucose and Body weight was measured during this period. On day 45, Body weight Changes, % HbA1c, Insulin was measured.

[5] = rats, 1 mg/kg s.c. single injection, Day 2
[6] = rats, 1 mg/kg s.c. single injection, Day 4
[7] = recovery period, earlier dose 6.078 nM
[8] = recovery study, day 45, earlier dose 6.078 nM (6.0788 nM given for Compound 13)

For “N-ε^26-[2-(2-[2-(2-[2-(2-[4-(17-Carboxyheptadecanoylamino)-4(S)carboxybutyrylamino]ethoxy) ethoxy]acetylamino)ethoxy]ethoxy)acetyl][(Aib^8, Arg^34, Leu^38 GLP-1(7-38) peptide (HXXXGTFTSDVSSYLXGQAAXEFXAWLVRGRGXX; C18 diacid-gGlu-OEG-OEG on Lys26; Aib8; (2)..(2) Xaa = Aib; (3)..(3) Xaa = absent.; (4)..(4) Xaa = Glu.; (16)..(16) Xaa = Glu.; (21)..(21) Lys is substituted; (24)..(24) Xaa is Ile.; (33)..(33) Xaa is Leu.; (34)..(34) Xaa is absent.) [Compound 1]”, the “Blood Glucose AUC (mg/dL*min) Mean” value ([1]; OGTT, 22 hr) was 3173.0 mg·min/dL, the “Change in AUC (mg/dL*min)” value ([1]; OGTT, 22 hr) was −78.7 and the “Blood Glucose AUC (mg/dL*min) Mean” value ([1]; OGTT, 168 hr) was 5941.0 mg·min/dL. The “Change in AUC (mg/dL*min)” value ([1]; OGTT, 168 hr) was −65.4, the “Blood Glucose AUC (mg/dL*min) Mean” value ([1]; OGTT, 336 hr) was 11920.0 mg·min/dL and the “Change in AUC (mg/dL*min)” value ([1]; OGTT, 336 hr) was −28.3. For the same substance, the “blood glucose level vs normal control” value ([1]; OGTT, 22 hours after single dosing, 1 mg/kg s.c. (FIG. 6A)) was “statistically significant reduction in blood glucose level”, the “glucose lowering effect vs semaglutide” value ([1]; OGTT, after 22 hrs, 1 mg/kg s.c. (FIG. 6A)) was “superior to the glucose lowering effect observed with semaglutide” and the “glucose lowering effect vs semaglutide” value ([1]; OGTT, after 46 hours of subcutaneous administration (FIG. 6B)) was “superiority of glucose lowering effect”. For the same substance, the “reduction in blood glucose AUC” value ([1]; after 168 hrs of injection, 1 mg/kg) was “about 60%”, the “Body Weight Change (%) Mean” value ([2]; 1 mg/Kg, 48 h) was −9.8% and the “Food Consumption (g) Mean” value ([2]; 1 mg/Kg, 48 h) was 8.3 g. The “Body Weight Change (%) Mean” value ([2]; 1 mg/Kg, 154 h) was 5.2%, the “Food Consumption (g) Mean” value ([2]; 1 mg/Kg, 154 h) was 69.6 g and the “Body Weight Change (%) Mean” value ([2]; 1 mg/Kg, 324 h) was 9.3%. For the same substance, the “Food Consumption (g) Mean” value ([2]; 1 mg/Kg, 324 h) was 99.4 g, the “food consumed vs animals administered with semaglutide” value ([2]; 1 mg/Kg, text on Table 8) was “consumed significantly less food” and the “Body Weight (Day 2) % Change vs Baseline” value [2, 5] was −9.33%. For the same substance, the “Body Weight (g) (Day 2) Mean” value [2, 5] was 365.6 g, the “Body Weight (Day 4) % Change vs Baseline” value [2, 6] was −7.5% and the “Body Weight (g) (Day 4) Mean” value [2, 6] was 436.2* g. The “Food Consumption (g) (day 0 to day 2) Mean” value ([2]; rats, 1 mg/kg s.c. single injection, day 0 to day 2) was 2.63*** g, the “Food Consumption (g) (day 0 to day 4) Mean” value ([2]; rats, 1 mg/kg s.c. single injection, day 0 to day 4) was 43.25***^,## g and the “cumulative food intake vs diabetic control group” value ([3]; db/db mice, 0 to 27th day (FIG. 8)) was “significant reduction in food intake”. For the same substance, the “% HbA1c Mean” value ([3]; db/db mice, Day 0 (before treatment)) was 4.87%, the “% HbA1c % Change vs DC” value ([3]; db/db mice, Day 27, vs Diabetic Control) was −3.57% and the “% HbA1c Mean” value ([3]; db/db mice, Day 27, s.c. 0.3 mg/kg qd*3, 0.1 mg/kg q2d*7, 0.1 mg/kg q4d*2) was 3.73***^## %. For the same substance, the “blood glucose levels vs diabetic control group” value ([3]; db/db mice, chronic treatment (FIG. 7)) was “statistically significant reduction in blood glucose levels”, the “% change in body weight” value ([3]; db/db mice, day 0 to day 27 (FIG. 9)) was −16% and the “blood glucose effect vs semaglutide treatment group” value ([3]; db/db mice, latter phase of the study (FIG. 7)) was “superior to semaglutide treatment group in latter phase of the study”. The “HbA1c level after chronic treatment” value ([3]; db/db type 2 diabetic mice, 27 day study) was “statistically significant reduction in HbA1c level”, the “Blood Glucose AUC (Day 0-29) % Change Vs Control” value ([4]; 6.078 nM, q2d*15) was −45.75% and the “Blood Glucose AUC (Day 0-29) (mg/dL*days) Mean” value ([4]; 6.078 nM, q2d*15) was 9194.6*** mg/dL*days. For the same substance, the “Body Weight Change Day 29, % Change vs Day 0 Mean” value ([4]; 6.078 nM, q2d*15) was −0.3%, the “Cumulative Food Intake (g) Day 0-29 Mean” value ([4]; 6.078 nM, q2d*15) was 79.8 g and the “% HbA1C Mean” value ([4]; Day 0, 6.078 nM, q2d*15) was 7.8%. For the same substance, the “Insulin (ng/mL) Mean” value ([4]; Day 0, 6.078 nM, q2d*15) was 18.0 ng/mL, the “% HbA1C Mean” value ([4]; Day 14, 6.078 nM, q2d*15) was 6.4 ** % and the “Insulin (ng/mL) Mean” value ([4]; Day 14, 6.078 nM, q2d*15) was 58.1** ng/mL. For the same substance, the “% HbA1C Mean” value ([4]; Day 29, 6.078 nM, q2d*15) was 6.2 *** %, the “Insulin (ng/mL) Mean” value ([4]; Day 29, 6.078 nM, q2d*15) was 54.7** ng/mL and the “HbA1c, blood glucose, food consumption and body weight vs control” value ([4]; about 3 nM and 6 nM dose) was “significant reduction”. For the same substance, the “Blood Glucose AUC (Day 30-37) % Change vs Control” value [4, 7] was −22.39%, the “Blood Glucose AUC (Day 30-37) (mg/dL*days) Mean” value [4, 7] was 2787.3* mg/dL*days and the “Blood Glucose AUC (Day 38-45) % Change vs Control” value [4, 7] was −7.39%. The “Blood Glucose AUC (Day 38-45) (mg/dL*days) Mean” value [4, 7] was 3335.7 mg·days/dL, the “% HbA1C Mean” value [4, 8] was 7.6% and the “Delta HbA1C vs. DC” value [4, 8] was −0.9. The “Insulin (ng/mL) Mean” value [4, 8] was 30.9 ng/mL and the “Body Weight % Change vs Day 45 Mean” value ([4]; recovery study, earlier dose 6.078 nM (6.0788 nM given for Compound 13)) was 5.9%.
